The NIST ThermoML archive (doi:10.1016/j.fluid.2018.05.005)
± gives the expanded uncertainty stated by the source.

Experiments:
[1] = Crystal; DSC
[2] = Molar enthalpy of transition or fusion; details: Crystal; DSC

In the case of `CC1(C)CCC2=C(O1)c1ccccc1C(=O)C2=O` [3,4-dihydro-2,2-dimethyl-2H-naphtho[1,2-b]pyran-5,6-dione], the Triple point temperature [1] is reported as 428.99 ± 1.9 K and the “Molar enthalpy of transition or fusion” value [2] is reported as 5.86 ± 0.263 kcal/mol.
